Assays:
Conditions in all cases: Table 35
[1] = target: RIP1 (Homo sapiens (Human), UniProt Q13546); assay: KINOMEscan binding assay, RIP1
[2] = target: RIP3 (Homo sapiens (Human), UniProt Q9Y572); assay: KINOMEscan binding assay, RIP3
Method: (§1) Kinase assays. For most assays, kinase-tagged T7 phage strains were grown in parallel in 24-well blocks in an E. coli host derived from the BL21 strain. E. coli were grown to log-phase and infected with T7 phage from a frozen stock (multiplicity of infection=0.4) and incubated with shaking at 32° C. until lysis (90-150 minutes).
(§2) The Hill Slope was set to −1.

[3] = target: MLKL (full length) (Homo sapiens (Human), UniProt Q8NB16); assay: KINOMEscan binding assay, MLKL (full length)
Sequence of MLKL (full length) (Q8NB16 whole entry): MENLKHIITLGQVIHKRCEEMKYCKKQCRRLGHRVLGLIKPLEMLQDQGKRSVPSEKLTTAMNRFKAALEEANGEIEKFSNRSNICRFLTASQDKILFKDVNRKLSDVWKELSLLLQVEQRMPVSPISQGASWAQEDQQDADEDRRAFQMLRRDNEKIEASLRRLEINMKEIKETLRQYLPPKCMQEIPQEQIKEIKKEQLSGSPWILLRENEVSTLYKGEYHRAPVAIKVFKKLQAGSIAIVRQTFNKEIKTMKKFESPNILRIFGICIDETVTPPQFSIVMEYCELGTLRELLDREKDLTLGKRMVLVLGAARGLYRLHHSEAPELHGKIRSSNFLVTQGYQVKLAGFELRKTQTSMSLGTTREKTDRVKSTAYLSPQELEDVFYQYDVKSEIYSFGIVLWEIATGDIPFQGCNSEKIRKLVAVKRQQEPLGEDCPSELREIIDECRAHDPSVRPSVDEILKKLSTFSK
Method: as §1, §2

Sequence of RIP1 (Q13546 whole entry): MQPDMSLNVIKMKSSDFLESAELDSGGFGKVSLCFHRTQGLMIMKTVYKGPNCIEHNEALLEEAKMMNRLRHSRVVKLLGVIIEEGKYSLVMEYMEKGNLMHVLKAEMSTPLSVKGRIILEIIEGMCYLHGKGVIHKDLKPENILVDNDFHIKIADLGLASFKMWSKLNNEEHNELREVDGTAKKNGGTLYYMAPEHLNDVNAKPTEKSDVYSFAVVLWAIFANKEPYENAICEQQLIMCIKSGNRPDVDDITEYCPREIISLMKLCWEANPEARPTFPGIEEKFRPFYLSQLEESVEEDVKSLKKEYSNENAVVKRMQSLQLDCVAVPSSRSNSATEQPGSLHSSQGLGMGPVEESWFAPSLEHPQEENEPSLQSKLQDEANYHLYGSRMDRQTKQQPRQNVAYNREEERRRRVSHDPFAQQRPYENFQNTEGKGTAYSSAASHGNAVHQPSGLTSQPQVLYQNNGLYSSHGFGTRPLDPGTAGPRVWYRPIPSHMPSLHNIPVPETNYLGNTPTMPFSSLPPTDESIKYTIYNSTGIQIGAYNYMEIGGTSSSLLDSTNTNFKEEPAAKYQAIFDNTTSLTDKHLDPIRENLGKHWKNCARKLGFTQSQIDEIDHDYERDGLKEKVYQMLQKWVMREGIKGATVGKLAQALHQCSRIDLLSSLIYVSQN
Sequence of RIP3 (Q9Y572 whole entry): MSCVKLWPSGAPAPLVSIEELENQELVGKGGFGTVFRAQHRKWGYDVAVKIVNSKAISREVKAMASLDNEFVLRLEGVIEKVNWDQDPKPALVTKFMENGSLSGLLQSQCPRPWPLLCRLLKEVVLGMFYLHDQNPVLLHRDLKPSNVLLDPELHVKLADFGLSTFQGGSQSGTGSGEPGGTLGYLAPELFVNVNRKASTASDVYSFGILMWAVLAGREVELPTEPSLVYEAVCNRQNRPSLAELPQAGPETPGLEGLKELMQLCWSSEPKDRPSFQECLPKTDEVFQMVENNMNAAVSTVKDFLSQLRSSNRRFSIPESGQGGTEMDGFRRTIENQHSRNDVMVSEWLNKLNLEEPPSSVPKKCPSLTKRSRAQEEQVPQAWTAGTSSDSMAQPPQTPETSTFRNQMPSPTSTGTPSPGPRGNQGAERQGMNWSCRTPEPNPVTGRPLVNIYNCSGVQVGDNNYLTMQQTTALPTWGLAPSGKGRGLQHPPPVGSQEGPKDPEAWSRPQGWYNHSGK

Row | Kd [1] [µM] | Kd [2] [µM] | Kd [3] [µM] | Compound
1 | > 30 | > 30 | – | CCS(=O)(=O)Nc1ccc(-c2n[nH]c(Nc3ccc4cc(Cl)ccc4n3)c2C(N)=O)cc1OCc1ccc(F)cc1 [Compound 220, 5-((6-chloroquinolin-2-yl)amino)-3-(4-(ethylsulfonamido)-3-((4-fluorobenzyl)oxy)phenyl)-1H-pyrazole-4-carboxamide]
2 | > 30 | > 30 | – | CCS(=O)(=O)Nc1ccc(-c2n[nH]c(Nc3cccc(C(F)(F)F)n3)c2C(N)=O)cc1OCC1CCCCC1 [Compound 200]
3 | > 30 | > 30 | – | CCS(=O)(=O)Nc1ccc(-c2n[nH]c(Nc3cnccn3)c2C(N)=O)cc1OCC1CCCN(C)C1 (stereo not shown) [Compound 187, 3-(4-(ethylsulfonamido)-3-((1-methylpiperidin-3-yl)methoxy)phenyl)-5-(pyrazin-2-ylamino)-1H-pyrazole-4-carboxamide]
4 | > 30 | > 30 | – | CCS(=O)(=O)Nc1ccc(-c2n[nH]c(Nc3cnc4cc(Cl)ccc4n3)c2C(N)=O)cc1 [Compound 65, 5-((6-chloroquinoxalin-2-yl)amino)-3-(4-(ethylsulfonamido)phenyl)-1H-pyrazole-4-carboxamide]
5 | > 30 | > 30 | – | CCS(=O)(=O)Nc1ccc(-c2n[nH]c(Nc3cc(C)ncc3F)c2C(N)=O)cc1 [Compound 111, 3-(4-(ethylsulfonamido)phenyl)-5-((5-fluoro-2-methylpyridin-4-yl)amino)-1H-pyrazole-4-carboxamide]
6 | > 30 | > 30 | – | CCS(=O)(=O)Nc1ccc(-c2n[nH]c(Nc3cnccn3)c2C(N)=O)cc1OCc1ccc(C(F)(F)F)cc1 [Compound 216, 3-(4-(ethylsulfonamido)-3-((4-(trifluoromethyl)benzyl)oxy)phenyl)-5-(pyrazin-2-ylamino)-1H-pyrazole-4-carboxamide]
7 | > 30 | > 30 | – | NC(=O)c1c(-c2ccc(NS(=O)(=O)Cc3cccc(C(F)(F)F)c3)cc2)n[nH]c1Nc1cnccn1 [Compound 83]
8 | > 30 | > 30 | – | CCS(=O)(=O)Nc1ccc(-c2n[nH]c(Nc3cnccn3)c2C(N)=O)cc1OCC1CCN(C)CC1 [Compound 203, 3-(4-(ethylsulfonamido)-3-((1-methylpiperidin-4-yl)methoxy)phenyl)-5-(pyrazin-2-ylamino)-1H-pyrazole-4-carboxamide]
9 | > 30 | > 30 | – | CCS(=O)(=O)Nc1ccc(-c2n[nH]c(Nc3cccc(C(F)(F)F)n3)c2C(N)=O)cc1OCc1ccc(F)cc1 [Compound 8, 3-(4-(ethylsulfon-amido)-3-((4-fluoro-benzyl)oxy)phenyl)-5-((6-(trifluoro-methyl)pyridin-2-yl)amino)-1H-pyrazole-4-carboxamide]
10 | > 30 | > 30 | – | CCS(=O)(=O)Nc1ccc(-c2n[nH]c(Nc3cccc(C(F)(F)F)n3)c2C(N)=O)cc1OCc1cccc(Cl)c1 [Compound 3, 3-(3-((3-chloro-benzyl)oxy)-4-(ethylsulfon-amido)phenyl)-5-((6-(trifluoro-methyl)pyridin-2-yl)amino)-1H-pyrazole-4-carboxamide]
11 | > 30 | > 30 | – | CCS(=O)(=O)Nc1ccc(-c2n[nH]c(Nc3cnccn3)c2C(N)=O)cc1OCc1ccc(OC(F)(F)F)cc1 [Compound 215, 3-(4-(ethylsulfonamido)-3-((4-(trifluoromethoxy)benzyl)oxy)phenyl)-5-(pyrazin-2-ylamino)-1H-pyrazole-4-carboxamide]
12 | > 30 | > 30 | – | NC(=O)c1c(-c2ccc(NS(=O)(=O)CCC(F)(F)F)c(OCc3ccc(F)cc3)c2)n[nH]c1Nc1cccc(C(F)(F)F)n1 [Compound 182, 3-(3-((4-fluorobenzyl)oxy)-4-((3,3,3-trifluoropropyl)sulfonamido)phenyl)-5-((6-(trifluoromethyl)pyridine-2-yl)amino)-1H-pyrazole-4-carboxamide]
13 | > 30 | > 30 | – | COc1ccc(S(=O)(=O)Nc2ccc(-c3n[nH]c(Nc4cnccn4)c3C(N)=O)cc2)cc1 [Compound 82, 3-(4-((4-methoxyphenyl)sulfonamido)phenyl)-5-(pyrazin-2-ylamino)-1H-pyrazole-4-carboxamide]
14 | – | > 30 | – | Cc1ccc(CS(=O)(=O)Nc2ccc(-c3n[nH]c(Nc4cccc(C(F)(F)F)n4)c3C(N)=O)cc2)cc1 [Compound 57, 3-(4-((p-tolylmethyl)sulfonamido)phenyl)-5-((6-(trifluoromethyl)pyridin-2-yl)amino)-1H-pyrazole-4-carboxamide]
15 | > 30 | – | < 0.01 | C#CCS(=O)(=O)Nc1ccc(-c2n[nH]c(Nc3ccnc(OCCOC)c3)c2C(N)=O)cc1 [Compound 109, 5-((2-(2-methoxyethoxy)pyridin-4-yl)amino)-3-(4-(prop-2-yn-1-ylsulfonamido)phenyl)-1H-pyrazole-4-carboxamide]
16 | > 30 | – | < 0.01 | CCS(=O)(=O)Nc1ccc(-c2n[nH]c(Nc3cnc(C(C)(C)C)cn3)c2C(N)=O)cc1 [Compound 181, 5-((5-(tert-butyl)pyrazin-2-yl)amino)-3-(4-(ethylsulfonamido)phenyl)-1H-pyrazole-4-carboxamide]

More lines, now with the values behind:

Row | Compound | Kd [1] [µM] | Kd [2] [µM] | Kd [3] [µM]
17 | CCS(=O)(=O)Nc1ccc(-c2n[nH]c(Nc3cccc(C(F)(F)F)n3)c2C(N)=O)cc1OCc1ccncc1 [Compound 16, 3-(4-(ethylsulfon-amido)-3-(pyridin-4-ylmethoxy)phenyl)-5-((6-(trifluoro-methyl)pyridin-2-yl)amino)-1H-pyrazole-4-carboxamide] | > 30 | > 30 | –
18 | CCS(=O)(=O)Nc1ccc(-c2n[nH]c(Nc3cnccn3)c2C(N)=O)cc1OCc1ccccc1F [Compound 2, 3-(4-(ethylsulfonamido)-3-((2-fluorobenzyl)oxy)phenyl)-5-(pyrazin-2-ylamino)-1H-pyrazole-4-carboxamide] | > 30 | > 30 | –
19 | CCS(=O)(=O)Nc1ccc(-c2n[nH]c(NC)c2C(N)=O)cc1 [Compound 119, 3-(4-(ethylsulfonamido)phenyl)-5-(methylamino)-1H-pyrazole-4-carboxamide] | – | > 30 | –
20 | CCS(=O)(=O)Nc1ccc(-c2n[nH]c(Nc3cnccn3)c2C(N)=O)cc1OCc1c(C)cc(F)cc1C [Compound 142, 3-(4-(ethylsulfonamido)-3-((4-fluoro-2,6-dimethylbenzyl)oxy)phenyl)-5-(pyrazin-2-ylamino)-1H-pyrazole-4-carboxamide] | – | > 30 | –
21 | NC(=O)c1c(-c2ccc(NS(=O)(=O)CC3CCC3)cc2)n[nH]c1Nc1cnccn1 [Compound 81, 3-(4-((cyclobutylmethyl)sulfonamido)phenyl)-5-(pyrazin-2-ylamino)-1H-pyrazole-4-carboxamide] | > 30 | > 30 | –
22 | CCS(=O)(=O)Nc1ccc(-c2n[nH]c(Nc3ccccn3)c2C(N)=O)cc1OCC1CCCC1 [Compound 36, 3-(3-(cyclopentyl-methoxy)-4-(ethylsulfon-amido)phenyl)-5-(pyridin-2-ylamino)-1H-pyrazole-4-carboxamide] | – | > 30 | –
23 | CCS(=O)(=O)Nc1ccc(-c2n[nH]c(Nc3cccc(C(F)(F)F)n3)c2C(N)=O)cc1OCc1ccc(Cl)cc1 [Compound 4, 3-(3-((4-chloro-benzyl)oxy)-4-(ethylsulfon-amido)phenyl)-5-((6-(trifluoro-methyl)pyridin-2-yl)amino)-1H-pyrazole-4-carboxamide] | > 30 | > 30 | –
24 | CCS(=O)(=O)Nc1ccc(-c2n[nH]c(Nc3cncc(C(F)(F)F)n3)c2C(N)=O)cc1 [Compound 44, 3-(4-(ethylsulfonamido)phenyl)-5-((6-(trifluoromethyl)pyrazin-2-yl)amino)-1H-pyrazole-4-carboxamide] | > 30 | > 30 | –
25 | CCS(=O)(=O)Nc1ccc(-c2n[nH]c(Nc3ccc4ccc(Cl)cc4n3)c2C(N)=O)cc1OCc1ccc(F)cc1 [Compound 138, 5-((7-chloroquinolin-2-yl)amino)-3-(4-(ethylsulfonamido)-3-((4-fluorobenzyl)oxy)phenyl)-1H-pyrazole-4-carboxamide] | > 30 | > 30 | –
26 | CCS(=O)(=O)Nc1ccc(-c2n[nH]c(Nc3ccccn3)c2C(N)=O)cc1OCC(C)C [Compound 37, 3-(4-(ethylsulfonamido)-3-isobutoxyphenyl)-5-(pyridin-2-ylamino)-1H-pyrazole-4-carboxamide] | > 30 | > 30 | –
27 | CCS(=O)(=O)Nc1ccc(-c2n[nH]c(Nc3cnccn3)c2C(N)=O)cc1OCC1CCN(C(C)=O)CC1 [Compound 7, 3-(3-((1-acetylpiperidin-4-yl)methoxy)-4-(ethylsulfonamido)phenyl)-5-(pyrazin-2-ylamino)-1H-pyrazole-4-carboxamide] | > 30 | > 30 | –
28 | CCS(=O)(=O)Nc1ccc(-c2n[nH]c(Nc3cccc(C(F)(F)F)n3)c2C(N)=O)c(OCc2ccc(F)cc2)c1 [Compound 141, 3-(4-(ethylsulfonamido)-2-((4-fluorobenzyl)oxy)phenyl)-5-((6-(trifluoromethyl)pyridine-2-yl)amino)-1H-pyrazole-4-carboxamide] | > 30 | > 30 | –
29 | C[C@H](Oc1cc(NS(=O)(=O)CC(F)(F)F)ccc1-c1n[nH]c(Nc2cnccn2)c1C(N)=O)c1ccc(F)cc1 [Compound 244, 3-{2-[(1S)-1-(4-fluorophenyl)ethoxy]-4-(2,2,2-trifluoroethanesulfonamido)phenyl}-5-[(pyrazin-2-yl)amino]-1H-pyrazole-4-carboxamide] | > 30 | > 30 | –
30 | CCS(=O)(=O)Nc1ccc(-c2n[nH]c(Nc3cnccn3)c2C(N)=O)cc1OCC(C)C [Compound 45, 3-(4-(ethylsulfonamido)-3-isobutoxyphenyl)-5-(pyrazin-2-ylamino)-1H-pyrazole-4-carboxamide] | – | > 30 | –

From patent US20250074891A1 (Anaxis Pharma Pty Ltd., priority 2021, published 2025)
